Results on 7 molecules are retold here after US20120245137A1 (Zalicus Pharmaceuticals Ltd., priority 2009, published 2012).

Read-outs that look alike come from different tables or passages of the source. A value given as a limit tells only on which side of the number the result lay.

The IC50 is the concentration needed to halve the response being measured.

Assay type in all cases: cell-based
One experiment has as its target CAv1.2 (Homo sapiens, UniProt Q13936). Kind of experiment: FLIPR data, CAv1.2 channel blocking (Table 6). The conditions noted are these: for CAv1.2 IC50 Ratio closed/inact.: ratio closed/inactivated IC50.
The target of experiment [1] is T-type calcium channel (Homo sapiens, UniProt O43497). The experiment in a line: T-type channel blocking, FLIPR data (Table 6). To be noted: CAv3.1. The source says:
(§1) Another method, high-throughput spectrophotometric assay, utilizes loading of the cell lines with a fluorescent dye sensitive to intracellular calcium concentration and subsequent examination of the effects of compounds on the ability of depolarization by potassium chloride or other means to alter intracellular calcium levels.

Experiment [2] deals with T-type calcium channel (Homo sapiens, UniProt O95180). The experiment in a line: T-type channel blocking, FLIPR data (Table 6). To be noted: for CAv3.2 IC50 Ratio closed/inact.: CAv3.2, ratio closed/inactivated IC50.
Excerpt: as §1

In another experiment the target is Human Cav 2.2 channels (Homo sapiens, UniProt Q00975). The experiment in a line: Fluorescent assay for CaV2.2 channels using potassium depolarization (VIPR/FLIPR). The conditions noted are these: FLIPR data; for CAv2.2 IC50 Ratio closed/inact.: ratio closed/inactivated IC50. The method, boiled down:
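HEK293 cells stably expressing human Cav2.2 with α2δ and β subunits plus Kir2.3 were loaded with fluo-4 and incubated 30 min at 25 °C with compound in 4, 12, 25 or 30 mM potassium buffer. Channels were opened with 70 mM potassium (final) and calcium influx was read by fluorescence (Ex 480/Em 535 nm).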

Setting [3] is: closed state, read-out: CAv1.2 IC50 Closed.
The mark [4] stands for this setting: inactivated state, read-out: CAv1.2 IC50 Inact.
[5] abbreviates: CAv3.2, closed state, read-out: CAv3.2 IC50 Closed.
Where [6] appears, read: CAv3.2, inactivated state, read-out: CAv3.2 IC50 Inact.
Setting [7] is: closed state, read-out: CAv2.2 IC50 Closed.
[8] abbreviates: inactivated state, read-out: CAv2.2 IC50 Inact.

Chain of CAv1.2 (Q13936 whole entry): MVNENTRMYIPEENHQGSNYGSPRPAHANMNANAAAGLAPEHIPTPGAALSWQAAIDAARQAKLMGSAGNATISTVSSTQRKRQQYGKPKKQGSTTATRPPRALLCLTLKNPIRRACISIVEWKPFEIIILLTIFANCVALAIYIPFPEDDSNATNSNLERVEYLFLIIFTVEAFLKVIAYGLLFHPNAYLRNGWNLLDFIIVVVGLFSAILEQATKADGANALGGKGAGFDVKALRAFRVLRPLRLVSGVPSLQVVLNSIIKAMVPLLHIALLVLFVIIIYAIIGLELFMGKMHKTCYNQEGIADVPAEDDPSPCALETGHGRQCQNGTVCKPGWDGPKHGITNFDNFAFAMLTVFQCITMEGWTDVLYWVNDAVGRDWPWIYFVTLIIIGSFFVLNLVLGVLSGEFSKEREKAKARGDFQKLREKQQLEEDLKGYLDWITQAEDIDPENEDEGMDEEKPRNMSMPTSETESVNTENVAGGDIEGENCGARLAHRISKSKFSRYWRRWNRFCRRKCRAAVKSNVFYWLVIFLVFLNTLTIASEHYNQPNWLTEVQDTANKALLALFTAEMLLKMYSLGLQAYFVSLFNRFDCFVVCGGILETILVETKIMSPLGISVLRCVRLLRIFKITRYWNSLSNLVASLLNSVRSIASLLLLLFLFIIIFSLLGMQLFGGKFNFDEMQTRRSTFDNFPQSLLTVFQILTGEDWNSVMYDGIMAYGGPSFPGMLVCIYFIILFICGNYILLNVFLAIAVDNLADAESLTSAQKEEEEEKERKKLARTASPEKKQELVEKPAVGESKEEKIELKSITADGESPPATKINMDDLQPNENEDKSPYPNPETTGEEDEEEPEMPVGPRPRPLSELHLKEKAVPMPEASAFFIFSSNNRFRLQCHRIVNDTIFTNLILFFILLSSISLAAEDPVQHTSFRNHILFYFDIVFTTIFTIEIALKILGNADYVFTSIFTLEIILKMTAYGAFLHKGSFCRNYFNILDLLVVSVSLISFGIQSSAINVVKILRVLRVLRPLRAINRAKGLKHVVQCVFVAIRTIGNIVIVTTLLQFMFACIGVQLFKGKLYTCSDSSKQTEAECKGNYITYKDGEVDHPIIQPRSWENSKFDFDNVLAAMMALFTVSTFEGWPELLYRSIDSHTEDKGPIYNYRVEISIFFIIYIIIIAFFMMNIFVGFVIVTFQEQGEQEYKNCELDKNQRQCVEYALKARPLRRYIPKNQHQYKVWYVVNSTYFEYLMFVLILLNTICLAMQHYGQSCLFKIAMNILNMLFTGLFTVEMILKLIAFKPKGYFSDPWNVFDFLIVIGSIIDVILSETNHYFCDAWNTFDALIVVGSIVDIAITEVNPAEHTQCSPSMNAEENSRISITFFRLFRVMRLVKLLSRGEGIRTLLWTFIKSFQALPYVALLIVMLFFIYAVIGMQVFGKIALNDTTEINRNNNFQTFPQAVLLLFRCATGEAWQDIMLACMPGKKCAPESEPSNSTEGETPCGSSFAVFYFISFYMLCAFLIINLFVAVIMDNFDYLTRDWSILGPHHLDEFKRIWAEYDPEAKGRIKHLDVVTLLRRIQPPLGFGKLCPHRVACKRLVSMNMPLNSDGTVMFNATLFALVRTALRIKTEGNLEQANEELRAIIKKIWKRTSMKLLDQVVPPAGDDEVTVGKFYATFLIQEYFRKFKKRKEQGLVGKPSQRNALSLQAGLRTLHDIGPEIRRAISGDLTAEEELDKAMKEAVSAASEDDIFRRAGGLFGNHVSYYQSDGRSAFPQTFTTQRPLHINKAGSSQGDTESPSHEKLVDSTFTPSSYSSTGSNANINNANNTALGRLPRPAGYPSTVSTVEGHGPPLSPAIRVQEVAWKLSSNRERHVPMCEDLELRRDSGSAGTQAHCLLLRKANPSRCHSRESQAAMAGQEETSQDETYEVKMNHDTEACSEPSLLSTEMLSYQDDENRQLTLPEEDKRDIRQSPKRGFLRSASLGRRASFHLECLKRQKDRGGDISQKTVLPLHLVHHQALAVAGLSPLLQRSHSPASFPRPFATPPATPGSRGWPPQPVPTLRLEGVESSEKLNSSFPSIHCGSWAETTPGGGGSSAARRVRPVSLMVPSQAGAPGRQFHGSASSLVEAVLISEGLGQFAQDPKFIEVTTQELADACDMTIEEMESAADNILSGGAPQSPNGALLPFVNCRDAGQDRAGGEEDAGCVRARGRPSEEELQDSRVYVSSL
Chain of CAv1.2 (P54289 25-1103 partner): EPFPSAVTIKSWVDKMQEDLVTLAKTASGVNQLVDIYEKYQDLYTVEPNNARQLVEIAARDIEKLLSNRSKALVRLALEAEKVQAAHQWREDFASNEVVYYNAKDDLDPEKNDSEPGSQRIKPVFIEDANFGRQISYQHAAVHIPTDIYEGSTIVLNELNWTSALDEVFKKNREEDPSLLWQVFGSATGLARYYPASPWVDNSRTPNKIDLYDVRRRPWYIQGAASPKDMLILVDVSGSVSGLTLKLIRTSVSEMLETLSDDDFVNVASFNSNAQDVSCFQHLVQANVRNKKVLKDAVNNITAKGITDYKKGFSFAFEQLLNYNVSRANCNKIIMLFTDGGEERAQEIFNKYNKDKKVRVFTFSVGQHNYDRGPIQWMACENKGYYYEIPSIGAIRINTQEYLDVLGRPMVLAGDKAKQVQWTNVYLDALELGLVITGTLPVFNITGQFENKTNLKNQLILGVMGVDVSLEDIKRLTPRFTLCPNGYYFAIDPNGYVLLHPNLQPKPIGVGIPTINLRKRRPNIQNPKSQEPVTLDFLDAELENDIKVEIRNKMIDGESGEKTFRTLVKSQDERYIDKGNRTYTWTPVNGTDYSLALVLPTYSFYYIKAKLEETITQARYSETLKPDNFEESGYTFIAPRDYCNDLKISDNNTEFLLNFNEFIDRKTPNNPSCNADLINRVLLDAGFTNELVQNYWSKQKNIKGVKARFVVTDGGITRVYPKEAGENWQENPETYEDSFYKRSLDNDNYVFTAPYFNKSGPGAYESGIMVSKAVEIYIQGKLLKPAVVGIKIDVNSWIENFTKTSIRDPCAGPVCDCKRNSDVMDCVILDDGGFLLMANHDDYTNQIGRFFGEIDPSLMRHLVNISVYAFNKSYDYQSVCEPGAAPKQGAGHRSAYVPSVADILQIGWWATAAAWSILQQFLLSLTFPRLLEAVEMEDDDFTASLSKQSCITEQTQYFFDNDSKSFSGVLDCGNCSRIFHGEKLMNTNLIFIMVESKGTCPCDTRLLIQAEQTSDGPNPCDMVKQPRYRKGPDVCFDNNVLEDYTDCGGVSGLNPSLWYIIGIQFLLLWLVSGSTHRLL
Chain of CAv1.2 (Q08289 whole entry partner): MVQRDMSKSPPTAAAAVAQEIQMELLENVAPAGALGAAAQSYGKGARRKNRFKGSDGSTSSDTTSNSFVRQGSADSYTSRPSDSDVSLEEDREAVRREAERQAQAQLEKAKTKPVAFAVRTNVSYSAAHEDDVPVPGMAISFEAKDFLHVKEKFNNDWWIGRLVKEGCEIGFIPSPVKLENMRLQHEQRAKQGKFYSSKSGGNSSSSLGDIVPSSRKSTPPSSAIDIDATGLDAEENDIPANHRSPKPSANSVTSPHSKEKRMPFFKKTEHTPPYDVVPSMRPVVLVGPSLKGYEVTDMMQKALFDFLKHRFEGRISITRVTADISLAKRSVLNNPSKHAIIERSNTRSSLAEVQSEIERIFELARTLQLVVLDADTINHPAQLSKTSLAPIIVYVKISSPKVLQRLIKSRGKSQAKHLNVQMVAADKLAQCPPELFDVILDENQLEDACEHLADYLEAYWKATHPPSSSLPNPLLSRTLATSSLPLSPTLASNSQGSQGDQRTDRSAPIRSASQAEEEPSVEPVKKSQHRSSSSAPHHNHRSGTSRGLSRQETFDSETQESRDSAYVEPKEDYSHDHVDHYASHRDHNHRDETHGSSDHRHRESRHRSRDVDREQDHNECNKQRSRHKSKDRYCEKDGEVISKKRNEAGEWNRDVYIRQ

For the molecule `CC(C)(C1CC(CNC(=O)c2cnc(C(F)(F)F)nc2)C1)S(=O)(=O)c1cccc(C(F)(F)F)c1` (stereo not drawn) [Compound 616], the IC50 at CAv1.2 (setting [3]) was at least 10 µM; at CAv1.2 (setting [4]) it was 2.81 µM; at T-type calcium channel [1], at least 10 µM; on T-type calcium channel [2] (setting [5]), at least 10 µM; on T-type calcium channel [2] (setting [6]) it was 6.4 µM; at Human Cav 2.2 channels (setting [7]) it was 4.81 µM. For the same molecule, the IC50 at Human Cav 2.2 channels (setting [8]) came out at 0.61 µM. The “CAv1.2 IC50 Ratio closed/inact.” value on CAv1.2 is listed as 3.6. For the same molecule, the “CAv3.2 IC50 Ratio closed/inact.” value on T-type calcium channel [2] was 1.6. The “CAv2.2 IC50 Ratio closed/inact.” value at Human Cav 2.2 channels is listed as 7.9.
As for `CC(C)([C@H]1C[C@@H](NS(=O)(=O)c2ccc(OC(F)(F)F)cc2)C1)S(=O)(=O)c1cccc(C(F)(F)F)c1` [Compound 630], the IC50 was at least 10 µM on CAv1.2 (setting [3]); 3.11 µM on CAv1.2 (setting [4]); 2.33 µM on T-type calcium channel [1]; 3.73 µM at T-type calcium channel [2] (setting [5]); 2.16 µM on T-type calcium channel [2] (setting [6]); 10 µM on Human Cav 2.2 channels (setting [7]). Also, the IC50 at Human Cav 2.2 channels (setting [8]) amounted to 0.68 µM. Also, the “CAv1.2 IC50 Ratio closed/inact.” value on CAv1.2 is 3.2. The “CAv3.2 IC50 Ratio closed/inact.” value at T-type calcium channel [2] was 1.7. The “CAv2.2 IC50 Ratio closed/inact.” value on Human Cav 2.2 channels turned out to be 14.7.
Take `CC(C)([C@H]1C[C@@H](Nc2ccnc(C(F)(F)F)n2)C1)S(=O)(=O)c1cc(F)cc(C(F)(F)F)c1` [Compound 648]: the IC50 on CAv1.2 (setting [3]) stood at 8.41 µM; at CAv1.2 (setting [4]), 2.28 µM; on T-type calcium channel [1], 2.81 µM; on T-type calcium channel [2] (setting [5]), 5.14 µM; on T-type calcium channel [2] (setting [6]), 4.1 µM; on Human Cav 2.2 channels (setting [7]), 5.05 µM. Moreover, the IC50 on Human Cav 2.2 channels (setting [8]) was determined as 0.99 µM. In addition, the “CAv1.2 IC50 Ratio closed/inact.” value at CAv1.2 turned out to be 3.7. At T-type calcium channel [2], the “CAv3.2 IC50 Ratio closed/inact.” value stood at 1.3. For the same molecule, the “CAv2.2 IC50 Ratio closed/inact.” value on Human Cav 2.2 channels worked out at 5.1.
With `CC(C)([C@H]1C[C@H](NC(=O)c2ccc(F)c(Cl)c2)C1)S(=O)(=O)c1cccc(OC(F)(F)F)c1` [Compound 634], the IC50 came out at 5.92 µM on CAv1.2 (setting [3]); 0.6 µM on CAv1.2 (setting [4]); 1.55 µM on T-type calcium channel [1]; 0.7 µM at T-type calcium channel [2] (setting [5]); 0.81 µM on T-type calcium channel [2] (setting [6]); 2.21 µM on Human Cav 2.2 channels (setting [7]). Moreover, on Human Cav 2.2 channels (setting [8]), the IC50 was 0.22 µM. In addition, the “CAv1.2 IC50 Ratio closed/inact.” value on CAv1.2 was found to be 9.9. The “CAv3.2 IC50 Ratio closed/inact.” value at T-type calcium channel [2] worked out at 0.9. In addition, at Human Cav 2.2 channels, the “CAv2.2 IC50 Ratio closed/inact.” value was 10.
For `CC(C)([C@H]1C[C@H](Nc2ccnc(C(F)(F)F)n2)C1)S(=O)(=O)c1cccc(OC(F)(F)F)c1` [Compound 647], the IC50 turned out to be 6.55 µM at CAv1.2 (setting [3]); 1.08 µM at CAv1.2 (setting [4]); 3.27 µM at T-type calcium channel [1]; 2.99 µM on T-type calcium channel [2] (setting [5]); 2.59 µM at T-type calcium channel [2] (setting [6]); 4.17 µM on Human Cav 2.2 channels (setting [7]). For the same molecule, the IC50 at Human Cav 2.2 channels (setting [8]) was found to be 0.86 µM. For the same molecule, the “CAv1.2 IC50 Ratio closed/inact.” value at CAv1.2 was 6.1. Also, the “CAv3.2 IC50 Ratio closed/inact.” value on T-type calcium channel [2] is recorded as 1.2. Besides, the “CAv2.2 IC50 Ratio closed/inact.” value on Human Cav 2.2 channels was 4.8.
Consider `CC(C)([C@H]1C[C@@H](NC(=O)c2ccnc(C(F)(F)F)n2)C1)S(=O)(=O)c1cccc(OC(F)(F)F)c1` [Compound 642], for which the IC50 at CAv1.2 (setting [3]) is at least 10 µM; at CAv1.2 (setting [4]), 8.43 µM; at T-type calcium channel [1], 4.07 µM; on T-type calcium channel [2] (setting [5]), 9.61 µM; at T-type calcium channel [2] (setting [6]), 2.81 µM; at Human Cav 2.2 channels (setting [7]), 3.09 µM. In addition, the IC50 on Human Cav 2.2 channels (setting [8]) was 0.63 µM. In addition, the “CAv1.2 IC50 Ratio closed/inact.” value on CAv1.2 is given as 1.2. In addition, the “CAv3.2 IC50 Ratio closed/inact.” value at T-type calcium channel [2] was 3.4. Moreover, the “CAv2.2 IC50 Ratio closed/inact.” value on Human Cav 2.2 channels is 4.9.
As to `CC(C)([C@H]1C[C@@H](NC(=O)c2ccc(Cl)cc2S(C)(=O)=O)C1)S(=O)(=O)c1cccc(C(F)(F)F)c1` [Compound 580], the IC50 is at least 10 µM on CAv1.2 (setting [3]); at least 10 µM on CAv1.2 (setting [4]); at least 10 µM on T-type calcium channel [1]; at least 10 µM at T-type calcium channel [2] (setting [5]); 10 µM at T-type calcium channel [2] (setting [6]); 10 µM at Human Cav 2.2 channels (setting [7]). In addition, the IC50 on Human Cav 2.2 channels (setting [8]) was found to be 0.26 µM. In addition, the “CAv3.2 IC50 Ratio closed/inact.” value on T-type calcium channel [2] came out at 1. The “CAv2.2 IC50 Ratio closed/inact.” value on Human Cav 2.2 channels is on record as 38.5.
